What was measured:
[1] = human gut metagenome, 24 h, 2 µM
[2] = human gut metagenome, 24 h, 2 µM; remark: listed apart in the source
[3] = human gut metagenome, 24 h, 2 µM; remark: listed apart in the source
[4] = human gut metagenome, 24 h, 2 µM; remark: listed apart in the source
[5] = human gut metagenome, 24 h, 2 µM; remark: listed apart in the source
[6] = (§1) The drug is tested on WLS-073 corresponding to human gut metagenome with ENA study accession number: PRJEB37062 and ENA sample accession number: ERS12561749 for biotransformation under anaerobic condition. The drug concentrations were measured over 9 timepoints collected between 0 and 24 hours of incubation by liquid-chromatography-coupled mass spectrometry (LC–MS); conditions: 2 µM
[7] = human gut metagenome, 24 h, 2 µM; remark: listed apart in the source
[8] = human gut metagenome, 24 h, 2 µM; remark: listed apart in the source
[9] = as §1, with “WLS-069” for “WLS-073”, “ERS12561748” for “ERS12561749”; conditions: 2 µM
[10] = as §1, with “WLS-086” for “WLS-073”, “ERS12561752” for “ERS12561749”; conditions: 2 µM
[11] = as §1, with “WLS-310” for “WLS-073”, “ERS12561785” for “ERS12561749”; conditions: 2 µM
[12] = human gut metagenome, 24 h, 2 µM; remark: listed apart in the source
[13] = human gut metagenome, 24 h, 2 µM; remark: listed apart in the source
[14] = as §1, with “Z-003” for “WLS-073”, “pig” for “human”, “ERS12561803” for “ERS12561749”; conditions: 2 µM
[15] = as §1, with “Z-022” for “WLS-073”, “mouse” for “human”, “ERS12561821” for “ERS12561749”; conditions: 2 µM
[16] = as §1, with “Z-028” for “WLS-073”, “mouse” for “human”, “ERS12561827” for “ERS12561749”; conditions: 2 µM
[17] = as §1, with “Z-005” for “WLS-073”, “to” for “to human gut”, “ERS12561805” for “ERS12561749”; conditions: 2 µM
Further: call rule not given here.

Compound	Bacterial Biotransformation [1]	Bacterial Biotransformation [2]	Bacterial Biotransformation [3]	Bacterial Biotransformation [4]	Bacterial Biotransformation [5]	Bacterial Biotransformation [6]	Bacterial Biotransformation [7]	Bacterial Biotransformation [8]	Bacterial Biotransformation [9]	Bacterial Biotransformation [10]	Bacterial Biotransformation [11]	Bacterial Biotransformation [12]	Bacterial Biotransformation [13]	Bacterial Biotransformation [14]	Bacterial Biotransformation [15]	Bacterial Biotransformation [16]	Bacterial Biotransformation [17]
CN(C)CCc1c[nH]c2ccc(CS(=O)(=O)N3CCCC3)cc12 [ALMOTRIPTAN]	Compound NOT metabolized	Compound NOT metabolized	Compound metabolized	Compound NOT metabolized	Compound NOT metabolized	Compound NOT metabolized	Compound metabolized	Compound NOT metabolized	Compound NOT metabolized	Compound metabolized	Compound metabolized	Compound NOT metabolized	Compound NOT metabolized				
CCCCC(=O)O[C@]1(C(=O)CO)[C@@H](C)C[C@H]2[C@@H]3CCC4=CC(=O)C=C[C@]4(C)[C@@]3(F)[C@@H](O)C[C@@]21C [BETAMETHASONE VALERATE]	Compound NOT metabolized	Compound NOT metabolized	Compound NOT metabolized	Compound metabolized	Compound NOT metabolized	Compound NOT metabolized	Compound metabolized	Compound metabolized	Compound metabolized	Compound metabolized	Compound metabolized	Compound metabolized	Compound NOT metabolized				
CC(=O)Oc1ccc(C(c2ccc(OC(C)=O)cc2)c2ccccn2)cc1 [BISACODYL]	Compound metabolized	Compound metabolized	Compound metabolized	Compound metabolized	Compound metabolized	Compound metabolized	Compound metabolized	Compound metabolized	Compound metabolized	Compound metabolized	Compound metabolized	Compound metabolized	Compound metabolized	Compound metabolized			
Cc1nc(Nc2ncc(C(=O)Nc3c(C)cccc3Cl)s2)cc(N2CCN(CCO)CC2)n1 [DASATINIB ANHYDROUS]	Compound metabolized	Compound metabolized	Compound metabolized	Compound metabolized	Compound metabolized	Compound metabolized	Compound metabolized	Compound metabolized	Compound NOT metabolized	Compound metabolized	Compound metabolized	Compound metabolized	Compound metabolized				
CNCC[C@H](Oc1cccc2ccccc12)c1cccs1 [DULOXETINE]	Compound NOT metabolized	Compound NOT metabolized	Compound NOT metabolized	Compound NOT metabolized	Compound NOT metabolized	Compound NOT metabolized	Compound NOT metabolized	Compound NOT metabolized	Compound NOT metabolized	Compound NOT metabolized	Compound metabolized	Compound NOT metabolized	Compound NOT metabolized				
COCCCC/C(=N\OCCN)c1ccc(C(F)(F)F)cc1.O=C(O)/C=C\C(=O)O [FLUVOXAMINE MALEATE]	Compound NOT metabolized	Compound metabolized	Compound NOT metabolized	Compound metabolized	Compound NOT metabolized	Compound NOT metabolized	Compound NOT metabolized	Compound NOT metabolized	Compound NOT metabolized	Compound NOT metabolized	Compound metabolized	Compound NOT metabolized	Compound metabolized				
CC#CCn1c(N2CCC[C@@H](N)C2)nc2c1c(=O)n(Cc1nc(C)c3ccccc3n1)c(=O)n2C [LINAGLIPTIN]	Compound NOT metabolized	Compound NOT metabolized	Compound NOT metabolized	Compound NOT metabolized	Compound NOT metabolized	Compound metabolized	Compound NOT metabolized	Compound NOT metabolized	Compound NOT metabolized	Compound NOT metabolized	Compound NOT metabolized		Compound NOT metabolized				
CN1CCN(C2=Nc3ccccc3Oc3ccc(Cl)cc32)CC1.O=C(O)CCC(=O)O [LOXAPINE SUCCINATE]	Compound NOT metabolized	Compound NOT metabolized	Compound NOT metabolized	Compound NOT metabolized	Compound NOT metabolized	Compound NOT metabolized	Compound NOT metabolized	Compound NOT metabolized	Compound NOT metabolized	Compound NOT metabolized	Compound NOT metabolized	Compound NOT metabolized	Compound NOT metabolized				
CCOC(=O)C1=C(C)NC(C)=C(C(=O)OC)C1c1cccc([N+](=O)[O-])c1 (stereo not given) [NITRENDIPINE]	Compound metabolized	Compound metabolized	Compound metabolized	Compound metabolized	Compound metabolized	Compound metabolized	Compound metabolized	Compound NOT metabolized	Compound metabolized	Compound metabolized	Compound metabolized	Compound metabolized	Compound metabolized				
N#Cc1ccc2c(c1)N(CCCN1CCC(O)CC1)c1ccccc1S2 [PERICIAZINE]	Compound metabolized	Compound NOT metabolized	Compound metabolized	Compound NOT metabolized	Compound NOT metabolized	Compound NOT metabolized	Compound metabolized	Compound metabolized	Compound metabolized	Compound metabolized	Compound metabolized	Compound NOT metabolized	Compound NOT metabolized				
O=C([O-])C[C@H](O)C[C@H](O)/C=C/c1c(C2CC2)nc2ccccc2c1-c1ccc(F)cc1.O=C([O-])C[C@H](O)C[C@H](O)/C=C/c1c(C2CC2)nc2ccccc2c1-c1ccc(F)cc1.[Ca+2] [PITAVASTATIN CALCIUM]	Compound metabolized	Compound NOT metabolized	Compound metabolized	Compound metabolized	Compound metabolized	Compound metabolized	Compound metabolized	Compound metabolized	Compound metabolized	Compound metabolized	Compound metabolized	Compound metabolized	Compound metabolized				
CNNCc1ccc(C(=O)NC(C)C)cc1 [PROCARBAZINE]	Compound metabolized	Compound NOT metabolized	Compound metabolized	Compound metabolized	Compound metabolized	Compound NOT metabolized	Compound metabolized	Compound NOT metabolized	Compound metabolized	Compound metabolized	Compound metabolized	Compound metabolized	Compound NOT metabolized	Compound NOT metabolized	Compound metabolized	Compound metabolized	Compound NOT metabolized

Source: ChEMBL document CHEMBL5724914, “Linking interpersonal differences in gut microbiota composition and drug biotransformation activity” (2024)
